# Test results: patent publication US5430027A, “2-chloro-N^6 -substituted adenosines, their pharmaceutical compositions, and activity in treating ischemias” (Novo Nordisk A/S, priority 1992, dated 1995)
# Molecular target: T1, A2 receptor (Rattus norvegicus, UniProt P30543)
# T1 construct: from tissue
# Experiment: In vitro binding to adenosine A2 receptor, [3H]-CGS 21680 radioligand
# Conditions: radioligand [3H]-CGS 21680; read-out: A2 receptor binding (Ki50)
# Experimental: (§1) Evaluation of in vitro binding to adenosine A1 and A2 receptors
# (§2) The affinity of the novel compounds described in this invention for the adenosine A1 receptor was determined essentially as described in the literature using [^3 H]-R-PIA as a radioligand (Naunyn-Schmiedeberg's Archives of Pharmacology, 1980, 313, 179-187). Affinity for the A2 receptor was measured using the radioligand [^3 H]-CGS 21680 (European Journal of Pharmacology, 1989, 168, 243-246), and the values for representative compounds is given in the table below.
# T1 sequence (P30543 whole entry): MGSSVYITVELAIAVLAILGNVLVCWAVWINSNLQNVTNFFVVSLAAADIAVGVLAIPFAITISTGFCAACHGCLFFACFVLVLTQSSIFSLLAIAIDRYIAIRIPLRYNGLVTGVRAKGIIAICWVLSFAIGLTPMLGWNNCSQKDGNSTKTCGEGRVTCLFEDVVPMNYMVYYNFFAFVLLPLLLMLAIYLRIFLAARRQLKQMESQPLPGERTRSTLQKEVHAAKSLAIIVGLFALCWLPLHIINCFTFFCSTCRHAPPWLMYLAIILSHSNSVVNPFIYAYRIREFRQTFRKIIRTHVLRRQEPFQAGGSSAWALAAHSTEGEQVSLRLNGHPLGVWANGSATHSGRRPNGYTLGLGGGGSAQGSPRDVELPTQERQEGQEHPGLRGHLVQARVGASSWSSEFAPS
row,SMILES,Ki [nM]
1,"CN(C)Nc1nc(Cl)nc2c1ncn2[C@@H]1O[C@H](CO)[C@@H](O)[C@H]1O [Example 3, 2-Chloro-N-(N,N-dimethylamino)adenosine]",1660
2,"OC[C@H]1O[C@@H](n2cnc3c(NOC4CCCC4)nc(Cl)nc32)[C@H](O)[C@@H]1O [Example 7, 2-Chloro-N-cyclopentyloxyadenosine]",2880
3,"CONc1nc(Cl)nc2c1ncn2[C@@H]1O[C@H](CO)[C@@H](O)[C@H]1O [Example 8, 2-Chloro-N-methoxyadenosine]",1150

# Molecular target: T2, adenosine A1 receptor (Rattus norvegicus, UniProt P25099)
# T2 construct: from tissue
# T2 sequence (P25099 1-326): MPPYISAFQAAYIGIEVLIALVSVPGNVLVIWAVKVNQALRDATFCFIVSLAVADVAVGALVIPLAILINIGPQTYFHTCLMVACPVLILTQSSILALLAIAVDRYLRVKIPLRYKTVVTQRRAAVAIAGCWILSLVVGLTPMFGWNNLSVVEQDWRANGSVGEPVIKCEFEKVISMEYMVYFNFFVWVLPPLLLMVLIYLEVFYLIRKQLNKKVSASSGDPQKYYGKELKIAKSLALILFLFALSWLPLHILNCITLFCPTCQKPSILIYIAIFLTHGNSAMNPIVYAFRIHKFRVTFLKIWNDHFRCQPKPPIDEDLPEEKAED
# Experiment: In vitro binding to adenosine A1 receptor, [3H]-R-PIA radioligand
# Conditions: A2 binding Ki50 divided by A1 binding Ki50 (selectivity)
# Experimental: as §1, §2
row,SMILES,Ratio A2/A1
1,"CN(C)Nc1nc(Cl)nc2c1ncn2[C@@H]1O[C@H](CO)[C@@H](O)[C@H]1O [Example 3, 2-Chloro-N-(N,N-dimethylamino)adenosine]",92
2,"OC[C@H]1O[C@@H](n2cnc3c(NOC4CCCC4)nc(Cl)nc32)[C@H](O)[C@@H]1O [Example 7, 2-Chloro-N-cyclopentyloxyadenosine]",429
3,"CONc1nc(Cl)nc2c1ncn2[C@@H]1O[C@H](CO)[C@@H](O)[C@H]1O [Example 8, 2-Chloro-N-methoxyadenosine]",55

# Same assay, conditions: radioligand [3H]-R-PIA; read-out: A1 receptor binding (Ki50)
row,SMILES,Ki [nM]
1,"CN(C)Nc1nc(Cl)nc2c1ncn2[C@@H]1O[C@H](CO)[C@@H](O)[C@H]1O [Example 3, 2-Chloro-N-(N,N-dimethylamino)adenosine]",18
2,"OC[C@H]1O[C@@H](n2cnc3c(NOC4CCCC4)nc(Cl)nc32)[C@H](O)[C@@H]1O [Example 7, 2-Chloro-N-cyclopentyloxyadenosine]",6.7
3,"CONc1nc(Cl)nc2c1ncn2[C@@H]1O[C@H](CO)[C@@H](O)[C@H]1O [Example 8, 2-Chloro-N-methoxyadenosine]",21
